“And” between values parts separate entries of the source, which are not always exact repeats. Equal values may be shown once.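 Tested at 5 concentrations; 48 h exposure; 96-well plates; endpoints linearly interpolated, else capped at highest concentration. GI50 marks 50% less growth. The concentration for full growth arrest is given as TGI.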
What was measured:
Assay in all cases: inhibition of tumour cell growth, NCI panel, 48 h
[1] = test system: EKVX NSCLC
[2] = test system: HOP-92 NSCLC
[3] = test system: M14 melanoma
[4] = test system: MOLT-4 leukemia
[5] = test system: NCI-H23 lung
[6] = test system: NCI-H522 lung
[7] = test system: OVCAR-4 ovarian
[8] = test system: OVCAR-5 ovarian
[9] = test system: SK-MEL-2 melanoma
[10] = test system: SN12C renal

SMILES	GI50 [1]	TGI [1]	GI50 [2]	TGI [2]	GI50 [3]	TGI [3]	GI50 [4]	TGI [4]	GI50 [5]	TGI [5]	GI50 [6]	TGI [6]	GI50 [7]	TGI [7]	GI50 [8]	TGI [8]	GI50 [9]	TGI [9]	GI50 [10]	TGI [10]
COc1ccc(C(=O)c2nc3ccccc3n2CC(=O)c2ccc(Cl)cc2)cc1	11.6 µM	> 100 µM	> 100000 nM	> 100 µM	2270 nM	> 100 µM	2090 nM	> 100 µM	4.61 µM	> 100 µM	3950 nM	> 100 µM	5.02 µM	> 100 µM	> 82300 nM	> 100 µM	12600 nM	> 100 µM	9.72 µM	> 100 µM
CN(C)C(=S)Nc1nnc(Nc2ccccc2)s1	–	> 100 µM	–	> 100 µM	–	> 100 µM	–	> 100 µM	–	> 100 µM	–	> 100 µM	–	> 100 µM	–	> 100 µM	–	> 100 µM	–	> 100 µM
C=CCNC(=O)N(CCC)CCCC(NC(C)=O)C(=O)NCc1ccccc1 (stereo not given)	–	> 100 µM	–	> 100 µM	–	> 100 µM	–	> 100 µM	–	> 100 µM	–	> 100 µM	–	> 100 µM	–	> 100 µM	–	> 100 µM	–	> 100 µM
COc1cccc(COc2cc(-n3cnc4ccccc43)sc2C(N)=O)c1	> 25 µM	> 25 µM	> 5900 nM	> 25 µM	> 25000 nM	> 25 µM	> 14800 nM	> 25 µM	> 16.6 µM	> 25 µM	9920 nM	> 25 µM	> 25 µM	> 25 µM	14200 nM	> 25 µM	> 15400 nM	> 25 µM	> 20.5 µM	> 25 µM
Cc1ccc(NC(=O)/C(Cc2cc(=O)oc3cc(O)ccc23)=N\NC(=O)C[N+](C)(C)C)cc1C	–	> 100 µM	–	> 100 µM	–	> 100 µM	–	> 100 µM	–	> 100 µM	–	> 100 µM	–	> 100 µM	–	> 100 µM	–	> 100 µM	–	> 100 µM
Cc1ccc(-n2nc(C(C)(C)C)cc2NC(=O)NCc2cc(F)ccc2Oc2ccc3c(cnn3CCO)c2)cc1	> 10 µM	> 10 µM	8060 nM and 5100 nM	> 10 µM and 95.2 µM	649 nM and 1310 nM	> 28.5 µM	9910 nM and 2050 nM	> 10 µM and 5.23 µM	5.6 µM and 6.17 µM	> 85.3 µM	> 10000 nM and 5320 nM	> 10 µM and 37.8 µM	> 10 µM and 4.1 µM	> 100 µM	> 10000 nM and 1890 nM	> 31.6 µM	2980 nM and 4420 nM	> 10 µM and 13 µM	> 10 µM and 6.27 µM	> 100 µM
CCCCCCCCCCCC1CC(=O)NCCCN(C)CCCCN(C)CCCN1C (stereo not given)	–	3.2 µM	–	2.68 µM	–	3.24 µM	–	7.73 µM	–	3.12 µM	–	3.27 µM	–	3.12 µM	–	3.3 µM	–	3.16 µM	–	3.14 µM
COC(=O)c1ccc2c(c1)C(=O)c1c-2n(CCCN=[N+]=[N-])c(=O)c2cc([N+](=O)[O-])ccc12	83.5 µM	> 100 µM	17500 nM	53.3 µM	> 100000 nM	> 100 µM	30200 nM	> 100 µM	60 µM	> 100 µM	34300 nM	> 100 µM	> 100 µM	> 100 µM	> 100000 nM	> 100 µM	27000 nM	82.5 µM	> 100 µM	> 100 µM
O=C(NCCN1CCNCC1)c1ccc(Nc2nc3ccccc3c3occc23)cc1	9.45 µM	27.2 µM	1240 nM	15.8 µM	1940 nM	3.98 µM	20400 nM	36.9 µM	12.6 µM	27.6 µM	10300 nM	28.3 µM	14.3 µM	33.3 µM	15000 nM	29.5 µM	18300 nM	36.4 µM	18.2 µM	34.9 µM
COc1ccc(F)c(F)c1C(=O)c1cnc(NC2CCN(S(C)(=O)=O)CC2)nc1N	0.923 µM	7.73 µM	250 nM and 430 nM	3.46 µM and 5.53 µM	1480 nM and 917 nM	9.66 µM and > 10 µM	390 nM and 321 nM	> 100 µM	0.814 µM and 0.397 µM	5.28 µM and 3.3 µM	2380 nM and 1620 nM	6.97 µM and 5.86 µM	1.44 µM and 1.41 µM	> 27.9 µM	728 nM and 251 nM	> 100 µM	1070 nM and 1150 nM	2.96 µM and 3.48 µM	0.94 µM and 0.477 µM	> 100 µM
O=C(O)c1ccccc1C(=O)c1ccc2c(c1)Cc1ccccc1-2	–	> 100 µM	–	> 100 µM	–	> 100 µM	–	> 100 µM	–	> 100 µM	–	> 100 µM	–	> 100 µM	–	> 100 µM	–	> 100 µM	–	> 100 µM
CCCCCCCCCCCCCC[n+]1cccc(C(N)=O)c1	1.97 µM	6.08 µM	657 nM	3.49 µM	1580 nM	3.6 µM	1670 nM	4.26 µM	2.28 µM	13.6 µM	1310 nM	6.24 µM	3.73 µM	19.6 µM	1620 nM	6.25 µM	2130 nM	4.69 µM	1.86 µM	8.34 µM
c1cnn2ncc(-c3ccnc(Nc4ccc5c(c4)OCCO5)n3)c2c1	0.0997 µM	1.13 µM	59.3 nM	0.162 µM	69.9 nM	0.221 µM	66.4 nM	0.622 µM	0.0692 µM	0.286 µM	116 nM	0.592 µM	0.269 µM	> 25 µM	86.6 nM	> 25 µM	48.3 nM	0.121 µM	0.0875 µM	> 25 µM
C[C@]12C/C(=C/O)C(=O)C(O)=C1CC[C@@H]1C2CC[C@@]2(C)C1CC[C@@H]2O (stereo not given in full)	–	72.8 µM	–	46.4 µM	–	38.1 µM	–	66.5 µM	–	40.3 µM	–	32 µM	–	62.7 µM	–	46.1 µM	–	55.4 µM	–	61.1 µM
CC(C)Oc1ccc(C(=O)Cn2ccnc2)cc1-n1c(CN2CCN(C(=O)COc3ccc(Cl)cc3)CC2)nc2ccccc2c1=O	16.5 µM	97 µM	13100 nM	35 µM	14000 nM	32.6 µM	7550 nM	> 71.8 µM	16.2 µM	37.7 µM	2240 nM	14.8 µM	3.6 µM	> 64.8 µM	17600 nM	42.4 µM	17600 nM	38.5 µM	14.6 µM	33.6 µM
Cc1cccc(N(CC(=O)O)S(=O)(=O)c2ccccc2)c1	–	> 100 µM	–	> 100 µM	–	> 100 µM	–	> 100 µM	–	> 100 µM	–	> 100 µM	–	> 100 µM	–	> 100 µM	–	> 100 µM	–	> 100 µM
CC1(C)CC(=O)C(CC2C(=O)c3ccccc3C2=O)C(=O)C1	–	> 100 µM	–	> 100 µM	–	> 100 µM	–	> 100 µM	–	> 100 µM	–	> 100 µM	–	> 100 µM	–	> 100 µM	–	> 100 µM	–	> 100 µM
O=C(Cl)C1=C(c2ccccc2)C1c1ccccc1 (stereo not given)	–	> 100 µM	–	> 100 µM	–	> 100 µM	–	> 100 µM	–	> 100 µM	–	> 100 µM	–	> 100 µM	–	> 100 µM	–	> 100 µM	–	> 100 µM
CC(=Nc1ccc(S(N)(=O)=O)cc1)c1c(O)[nH]c2ccccc12	> 25 µM	> 25 µM	> 25000 nM	> 25 µM	> 25000 nM	> 25 µM	> 25000 nM	> 25 µM	> 25 µM	> 25 µM	> 25000 nM	> 25 µM	> 25 µM	> 25 µM	> 25000 nM	> 25 µM	> 25000 nM	> 25 µM	> 25 µM	> 25 µM
[2H]c1nc(=Nc2cc(NC(=O)C=C)c(N(C)CCN(C)C)cc2OC)[nH]c(-c2cn(C([2H])([2H])[2H])c3ccccc23)c1[2H]	0.853 µM	11.5 µM	1040 nM	2.45 µM	1670 nM	3.23 µM	1140 nM	2.86 µM	3.14 µM	15.5 µM	265 nM	2.24 µM	3.27 µM	17.3 µM	1040 nM	2.93 µM	1730 nM	3.65 µM	1.18 µM	2.71 µM
CCCCCCC(C)CCCCCCCCCCC(=O)O (stereo not given)	–	> 100 µM	–	> 100 µM	–	> 100 µM	–	> 100 µM	–	> 100 µM	–	> 100 µM	–	> 100 µM	–	> 100 µM	–	> 100 µM	–	> 100 µM
CCOC(OC1=C(C#N)CCCC1)C(CC)[Se]c1ccccc1 (stereo not given)	–	69.2 µM	–	61.3 µM	–	> 100 µM	–	55.8 µM	–	31.5 µM	–	29 µM	–	43.2 µM	–	86.4 µM	–	80.8 µM	–	36.9 µM
CC(C)[O-].CC(C)[O-].CN(CCN(C)Cc1cc(F)cc(F)c1[O-])Cc1cc(F)cc(F)c1[O-].[Ti+4]	1.31 µM	10 µM	316 nM	1.18 µM	638 nM	2.3 µM	900 nM	8.47 µM	0.706 µM	2.72 µM	777 nM	2.33 µM	0.717 µM	7.18 µM	1510 nM	8.78 µM	1520 nM	4.95 µM	1.53 µM	7.31 µM
